Assay results published in patent publication US5453439A, “Hydroxylamine derivatives” (Zeneca Limited, priority 1992, dated 1995).

What was measured:
5-LO = molecular target: T1, 5-LO (Homo sapiens, UniProt P09917); assay: Test a) in vitro heparinised human blood, A23187 challenge, LTB4 radioimmunoassay (indirect inhibition of 5-LO); format: cell-based
T1 construct: incubating a test compound with heparinised human blood; endogenous in cells; host or cells: heparinised human blood (blood cells; A23187 challenge)
T1 sequence (P09917 1-674): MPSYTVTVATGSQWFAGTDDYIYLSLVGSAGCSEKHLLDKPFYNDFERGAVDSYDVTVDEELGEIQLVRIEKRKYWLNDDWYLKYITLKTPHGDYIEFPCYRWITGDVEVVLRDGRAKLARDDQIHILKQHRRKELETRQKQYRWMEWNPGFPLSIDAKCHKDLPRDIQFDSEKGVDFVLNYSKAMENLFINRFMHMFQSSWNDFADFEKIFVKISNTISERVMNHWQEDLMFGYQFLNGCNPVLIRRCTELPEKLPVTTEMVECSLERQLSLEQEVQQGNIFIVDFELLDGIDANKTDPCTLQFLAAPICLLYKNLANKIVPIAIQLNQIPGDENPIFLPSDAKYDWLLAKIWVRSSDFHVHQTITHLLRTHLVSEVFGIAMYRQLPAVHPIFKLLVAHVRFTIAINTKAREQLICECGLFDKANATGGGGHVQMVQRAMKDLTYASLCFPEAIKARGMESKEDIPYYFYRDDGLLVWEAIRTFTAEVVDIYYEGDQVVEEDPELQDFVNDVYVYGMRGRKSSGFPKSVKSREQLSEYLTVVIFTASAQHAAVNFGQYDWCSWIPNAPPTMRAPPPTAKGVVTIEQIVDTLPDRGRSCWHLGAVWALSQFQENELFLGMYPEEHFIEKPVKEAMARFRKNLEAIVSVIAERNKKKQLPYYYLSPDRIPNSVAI
Procedure: a) An in vitro assay system involving incubating a test compound with heparinised human blood, prior to challenge with the calcium ionophore A^23187 and then indirectly measuring the inhibitory effects on 5-LO by assaying the amount of LTB4 using specific radioimmunoassays described by Carey and Forder (Prostaglandins, Leukotrienes Med., 1986, 22, 57; Prostaglandins, 1984, 28, 666; Brit. J. Pharmacol., 1985, 84, 34P) which involves the use of a protein-LTB4 conjugate produced using the procedure of Young et alia (Prostaglandins, 1983, 26(4), 605-613). The effects of a test compound on the enzyme cyclooxygenase (which is involved in the alternative metabolic pathway for arachidonic acid and gives rise to prostaglandins, thromboxanes and related metabolites) may be measured at the same time using the specific radioimmunoassay for thromboxane B2 (TxB2) described by Carey and Forder (see above). This test provides an indication of the effects of a test compound against 5-LO and also cyclooxygenase in the presence of blood cells and proteins. It permits the selectivity of the inhibitory effect on 5-LO or cyclooxygenase to be assessed.

[1] = test system: LTB4 liberation induced by zymosan (5-LO); assay: Test c) in vivo zymosan-induced LTB4 liberation in rat subcutaneous air pouch, oral administration; settings: 3 h; test c)
Procedure: c) An in vivo system involving measuring the effects of a test compound administered orally against the liberation of LTB4 induced by zymosan within an air pouch generated within the subcutaneous tissue of the back of male rats. The rats are anaesthetised and air pouches are formed by the injection of sterile air (20 ml). A further injection of air (10 ml) is similarly given after 3 days. At 6 days after the initial air injection the test compound is administered (usually orally as the suspension produced when a solution of the test compound in dimethylsulphoxide is added to hydroxypropylmethylcellulose), followed by the intrapouch injection of zymosan (1 ml of a 1% suspension in physiological saline). After 3 hours the rats are killed, the air pouches are lavaged with physiological saline, and the specific radioimmunoassay described above is used to assay LTB4 in the washings. This test provides an indication of inhibitory effects against 5-LO in an inflammatory milieu.

Compound | IC50 (5-LO) [nM] | ED50 [1] [mg/kg]
CONC(C)c1ccc(Sc2cc(F)cc(C3(OC)CCOCC3)c2)cc1 (stereo not drawn) [N-{4-[5-fluoro-3-(4-methoxytetrahydropyran-4-yl)phenylthio]-α-methylbenzyl}-O-methylhydroxylamine] | 40 | ~0.5
COC1(c2cc(F)cc(Sc3ccc(C(C)N(O)C(N)=O)cc3)c2)CCOCC1 (stereo not drawn) [N-{4-[5-fluoro-3-(4-methoxytetrahydropyran-4-yl)phenylthio]-α-methylbenzyl)-N-hydroxyurea] | 570 | ~0.5
COC1(c2cc(F)cc(Sc3ccc(C(C)N(OC(C)=O)C(C)=O)cc3)c2)CCOCC1 (stereo not drawn) [O-acetyl-N-{4-[5-fluoro-3-(4-methoxytetrahydropyran-4-yl)phenylthio]-α-methylbenzyl}acetohydroxamic acid] | 150 | ~0.5
